Test results published in PubChem BioAssay AID248 (DTP/NCI, 2004).
Several values for one entry are separate records, joined by “and”; a condition that tells them apart may be missing. Equal values may be shown once. Toxic doses and inconclusive results are not listed. Cut-off read from the data, not from the text of the source: active = T/C of 150% or more; inactive = T/C below 125%.

Tested on: L1210 leukemia ip in BDF1 mice, survival T/C
Assay: NCI In Vivo Anticancer Drug Screen. Data for tumor model L1210 Leukemia (intraperitoneal) in B6D2F1 (BDF1) mice
Details: endpoint: mean survival time, higher = longer survival
How it was run: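 Ratio derived from survival: compound-dosed mice over vehicle-dosed mice, all bearing a transplantable tumor.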

[1] = dose: 100.0 mg/kg/injection, schedule: Q04DX003 (ip), vehicle: saline
[2] = dose: 200.0 mg/kg/injection, schedule: Q04DX003 (ip), vehicle: saline
[3] = dose: 400.0 mg/kg/injection, schedule: Q04DX003 (ip), vehicle: saline
[4] = dose: 100.0 mg/kg/injection, schedule: Q01DX009 (ip), vehicle: Klucel (hydroxypropylcellulose) (HPC)
[5] = dose: 200.0 mg/kg/injection, schedule: Q01DX009 (ip), vehicle: Klucel (hydroxypropylcellulose) (HPC)
[6] = dose: 400.0 mg/kg/injection, schedule: Q01DX009 (ip), vehicle: Klucel (hydroxypropylcellulose) (HPC)
[7] = dose: 50.0 mg/kg/injection, schedule: Q01DX001 (ip), vehicle: saline
[8] = dose: 100.0 mg/kg/injection, schedule: Q01DX001 (ip), vehicle: saline
[9] = dose: 200.0 mg/kg/injection, schedule: Q01DX001 (ip), vehicle: saline
[10] = dose: 400.0 mg/kg/injection, schedule: Q01DX001 (ip), vehicle: saline
[11] = dose: 100.0 mg/kg/injection, schedule: Q04DX002 (ip), vehicle: saline with Tween-80
[12] = dose: 200.0 mg/kg/injection, schedule: Q04DX002 (ip), vehicle: saline with Tween-80
[13] = dose: 100.0 mg/kg/injection, schedule: Q01DX001 (ip), vehicle: saline with Tween-80
[14] = dose: 200.0 mg/kg/injection, schedule: Q01DX001 (ip), vehicle: saline with Tween-80
[15] = dose: 100.0 mg/kg/injection, schedule: Q04DX003 (ip), vehicle: Klucel (hydroxypropylcellulose) (HPC)
[16] = dose: 200.0 mg/kg/injection, schedule: Q04DX003 (ip), vehicle: Klucel (hydroxypropylcellulose) (HPC)
[17] = dose: 400.0 mg/kg/injection, schedule: Q04DX003 (ip), vehicle: Klucel (hydroxypropylcellulose) (HPC)
[18] = dose: 100.0 mg/kg/injection, schedule: Q04DX002 (ip), vehicle: Klucel (hydroxypropylcellulose) (HPC)
[19] = dose: 200.0 mg/kg/injection, schedule: Q04DX002 (ip), vehicle: Klucel (hydroxypropylcellulose) (HPC)
[20] = dose: 400.0 mg/kg/injection, schedule: Q04DX002 (ip), vehicle: Klucel (hydroxypropylcellulose) (HPC)
[21] = dose: 100.0 mg/kg/injection, schedule: Q04DX003 (ip), vehicle: saline with Tween-80
[22] = dose: 200.0 mg/kg/injection, schedule: Q04DX003 (ip), vehicle: saline with Tween-80

Measured: T/C

CN(C)C(=Nc1ccccc1)N(C)N
inactive: dose: 37.5 mg/kg/injection, schedule: Q04DX003 (ip), vehicle: saline 102 % of control | dose: 75.0 mg/kg/injection, schedule: Q04DX003 (ip), vehicle: saline 101 % of control | dose: 150.0 mg/kg/injection, schedule: Q04DX003 (ip), vehicle: saline 102 % of control

O=[N+]([O-])c1ccc(-c2ncc3cnccn23)cc1
inactive: dose: 100.0 mg/kg/injection, schedule: Q01DX009 (ip), vehicle: saline 90 % of control | [1] 100 % of control | dose: 200.0 mg/kg/injection, schedule: Q01DX009 (ip), vehicle: saline 90 % of control | [2] 93 % of control | dose: 400.0 mg/kg/injection, schedule: Q01DX009 (ip), vehicle: saline 91 % of control | [3] 95 % of control

CN(C)c1ccc(C(=O)/C=C/c2ccc([N+](=O)[O-])cc2)cc1
inactive: [4] 87 % of control | [5] 97 % of control | [6] 86 % of control

O=C(Nc1ncccn1)C(F)(F)F
inactive: [7] 95 % of control | [8] 92 % of control | [9] 95 % of control | [10] 90 % of control

CCCCCCCCCCCOP(=O)(OCC)OCC
inactive: [11] 95 % of control | [12] 95 % of control | dose: 400.0 mg/kg/injection, schedule: Q04DX002 (ip), vehicle: saline with Tween-80 106 % of control

O=C1c2ccccc2C(=O)N1[N+](=O)[O-]
inactive: [7] 101 % of control | [8] 107 % of control | [9] 107 % of control | [10] 103 % of control

Oc1c2ccsc2cc2ccsc12
inactive: [13] 94 % of control | [14] 94 % of control | dose: 400.0 mg/kg/injection, schedule: Q01DX001 (ip), vehicle: saline with Tween-80 91 % of control

CCCCNC(=O)Nc1cc(Cl)ccc1C
inactive: dose: 3.12 mg/kg/injection, schedule: Q01DX009 (ip), vehicle: Klucel (hydroxypropylcellulose) (HPC) 97 % of control | dose: 6.25 mg/kg/injection, schedule: Q01DX009 (ip), vehicle: Klucel (hydroxypropylcellulose) (HPC) 92 % of control | dose: 12.5 mg/kg/injection, schedule: Q01DX009 (ip), vehicle: Klucel (hydroxypropylcellulose) (HPC) 101 % of control and 90 % of control | dose: 25.0 mg/kg/injection, schedule: Q01DX009 (ip), vehicle: Klucel (hydroxypropylcellulose) (HPC) 89 % of control | [4] 94 % of control and 86 % of control | [15] 95 % of control | [16] 90 % of control | [17] 90 % of control

COc1ccc(C(OCC2OC(n3nnc4c(=O)[nH]c(N)nc43)CC2OC(C)=O)(c2ccccc2)c2ccc(OC)cc2)cc1 (stereo unspecified)
inactive: dose: 12.5 mg/kg/injection, schedule: Q01DX001 (ip), vehicle: Klucel (hydroxypropylcellulose) (HPC) 103 % of control | dose: 25.0 mg/kg/injection, schedule: Q01DX001 (ip), vehicle: Klucel (hydroxypropylcellulose) (HPC) 93 % of control | dose: 50.0 mg/kg/injection, schedule: Q01DX001 (ip), vehicle: Klucel (hydroxypropylcellulose) (HPC) 97 % of control | dose: 400.0 mg/kg/injection, schedule: Q01DX001 (ip), vehicle: Klucel (hydroxypropylcellulose) (HPC) 100 % of control

Cc1cccc(C)[n+]1CC(=O)CCCCCCC(=O)C[n+]1c(C)cccc1C
inactive: dose: 0.25 mg/kg/injection, schedule: Q04DX003 (ip), vehicle: saline 98 % of control | dose: 0.5 mg/kg/injection, schedule: Q04DX003 (ip), vehicle: saline 105 % of control | dose: 1.0 mg/kg/injection, schedule: Q04DX003 (ip), vehicle: saline 101 % of control

COc1ccc(C(=O)/C=C/c2ccc(OC)c(OC)c2)cc1
inactive: [15] 95 % of control | [16] 92 % of control | [17] 100 % of control

CC(=O)OCCSC#N
inactive: dose: 12.5 mg/kg/injection, schedule: Q04DX003 (ip), vehicle: saline with Tween-80 98 % of control | dose: 25.0 mg/kg/injection, schedule: Q04DX003 (ip), vehicle: saline with Tween-80 97 % of control

CNC(Cc1ccccc1)c1ccco1 (stereo unspecified)
inactive: dose: 50.0 mg/kg/injection, schedule: Q01DX009 (ip), vehicle: Klucel (hydroxypropylcellulose) (HPC) 104 % of control | [4] 104 % of control | [11] 107 % of control | [5] 102 % of control | [12] 110 % of control

COc1ccc(C(C)=O)cc1OC
inactive: dose: 100.0 mg/kg/injection, schedule: Q01DX009 (ip), vehicle: saline sonified 92 % of control | dose: 200.0 mg/kg/injection, schedule: Q01DX009 (ip), vehicle: saline sonified 88 % of control | dose: 400.0 mg/kg/injection, schedule: Q01DX009 (ip), vehicle: saline sonified 100 % of control

CCOC(=O)N=C=S
inactive: [1] 95 % of control | [2] 103 % of control | [3] 95 % of control

IC1CCCCC1[n+]1ccccc1 (stereo unspecified)
inactive: dose: 100.0 mg/kg/injection, schedule: Q04DX003 (sc), vehicle: olive oil, sesame oil, peanut oil 105 % of control | dose: 200.0 mg/kg/injection, schedule: Q04DX003 (sc), vehicle: olive oil, sesame oil, peanut oil 103 % of control | dose: 400.0 mg/kg/injection, schedule: Q04DX003 (sc), vehicle: olive oil, sesame oil, peanut oil 101 % of control

c1ccc(C2=NCCN=C2c2ccccc2)cc1
inactive: [15] 97 % of control | [16] 97 % of control | [17] 93 % of control

O=C(COc1ccc([N+](=O)[O-])cc1Cl)N1CCOCC1
inactive: [4] 103 % of control | [15] 98 % of control | [5] 97 % of control | [16] 103 % of control | [6] 101 % of control | [17] 95 % of control

c1ccc2c(c1)-c1cccc3cccc-2c13
inactive: [4] 95 % of control | [15] 95 % of control | [5] 95 % of control | [16] 95 % of control | [6] 101 % of control | [17] 101 % of control

CC(C)C(=O)NCc1ccccc1
inactive: [18] 104 % of control | [19] 101 % of control | [20] 90 % of control

Cc1ccc(C(C)C)c2sc(=N)oc12
inactive: [15] 104 % of control | [16] 103 % of control | [17] 98 % of control

CN(C)c1ncnc2c1ncn2Cc1ccccc1
inactive: [13] 92 % of control | [14] 96 % of control

COc1ccccc1-n1c(=O)c(N=Nc2ccccc2C)c(O)n(-c2ccccc2C)c1=S
inactive: dose: 37.5 mg/kg/injection, schedule: Q01DX001 (ip), vehicle: Klucel (hydroxypropylcellulose) (HPC) 106 % of control | dose: 75.0 mg/kg/injection, schedule: Q01DX001 (ip), vehicle: Klucel (hydroxypropylcellulose) (HPC) 106 % of control | dose: 150.0 mg/kg/injection, schedule: Q01DX001 (ip), vehicle: Klucel (hydroxypropylcellulose) (HPC) 108 % of control

CC(=O)OC12CCC(O1)C1C(=O)OC(=O)C12 (stereo unspecified)
inactive: [15] 101 % of control | [16] 97 % of control | [17] 97 % of control

CCCNC(=O)Oc1cccc(NC(=O)OC)c1
inactive: [21] 93 % of control | [22] 97 % of control | dose: 400.0 mg/kg/injection, schedule: Q04DX003 (ip), vehicle: saline with Tween-80 103 % of control

CCOC(=O)n1cnc(N)n1
inactive: [4] 104 % of control | [5] 104 % of control | [6] 107 % of control

O=C(C1C2C=CC(C2)C1C(=O)N1CCCCC1)N1CCCCC1 (stereo unspecified)
inactive: dose: 25.0 mg/kg/injection, schedule: Q04DX003 (ip), vehicle: saline 103 % of control | dose: 50.0 mg/kg/injection, schedule: Q04DX003 (ip), vehicle: saline 95 % of control | [21] 111 % of control | [1] 98 % of control | [22] 86 % of control

CC(C)CCOC(=O)C(O)C(C)(Cl)c1ccccc1 (stereo unspecified)
inactive: [18] 111 % of control | [19] 91 % of control | [20] 100 % of control

CC1(c2ccc3ccccc3c2)OCC2(CCC2)CO1
inactive: [18] 97 % of control | [20] 107 % of control

O=C(O)COc1c(F)cc([N+](=O)[O-])cc1[N+](=O)[O-]
inactive: [18] 106 % of control | [19] 91 % of control | [20] 111 % of control

NC(=O)N(N)CCO
inactive: [8] 102 % of control | [9] 91 % of control | [10] 93 % of control
